From ChEMBL document CHEMBL1240318, “Developing a new resource for drug discovery: marine actinomycete bacteria” (2006) come the findings set out here.

Structures are written as SMILES. Converted amounts (≈) assume the structure as drawn.

Holding throughout (assay type): functional
The test system of one experiment is SK-MEL-5. The experiment in a line: Antitumor activity against human SK-MEL-5 cells. Conditions: read-out: LC50 (the source's name).
The next experiment concerns Enterococcus faecium. The experiment can be described thus: Antimicrobial activity against vancomycin-resistant Enterococcus faecium assessed as growth inhibition.
A further experiment has as its system Staphylococcus aureus. The experiment in a line: Antimicrobial activity against methicillin-resistant Staphylococcus aureus assessed as growth inhibition.
Another experiment concerns Candida albicans. The experiment can be described thus: Antimicrobial activity against amphotericin-resistant Candida albicans.

On to `C\C1=C/C=C/C=C/C=C/c2cccc(O)c2C(=O)O[C@@H](C[C@@H](C)O)C[C@@H](O)C/C=C/[C@@H](O)C[C@@H](O)CC(C)/C=C/C=C/C=C/C=C/c2cccc(O)c2C(=O)O[C@@H](C[C@@H](C)O)C[C@@H](O)C/C=C/[C@@H](O)C[C@@H](O)C1` (some centres undefined) [MARINOMYCIN A], for which the CC50 with SK-MEL-5 was found to be 5 nM. The MIC in the experiment with Enterococcus faecium and in the experiment on Staphylococcus aureus was 0.1 µM (≈ 0.101 µg/mL) in each case. The MIC90 (in general, an inhibitory concentration at the 90% level, which refers to growth in some studies and to a panel of isolates in others) in the experiment on Candida albicans came to 7.8 µM (≈ 7.89 µg/mL).
